# Reference: patent publication US12723063B2, “GIPR-agonist compounds” (Eli Lilly and Company, priority 2019, dated 2026)
# *1 amine or outer side, *2 acyl side, *3 side chain or, on linkers, in order; H or OH if unused. Where a SMILES comes first, the peptide text is derived from it. Side-chain parts run from the residue outwards. [ ]: non-standard residue; d: D form. The star is where a group is joined. C20 diacid = O=C(O)CCCCCCCCCCCCCCCCCCC(=O)*; γGlu = O=C(O)[C@H](CCC(=O)[*:2])N[*:1]; AEEA = NCCOCCOCC(=O)O
# What was measured:
# [1] = target: T1, human glucagon receptor (GcgR) (Homo sapiens, UniProt P47871); experiment: cAMP functional assay (HTRF) in HEK293 cells in presence of 0.1% casein; type: cell-based; conditions: HEK293 cells expressing human GcgR, geometric mean, read-out: hGcgR cAMP Rel EC50 nM (SEM, n)
# T1 construct: expressed in transfected cells; host or cells: HEK293
# T1 sequence (P47871 26-477): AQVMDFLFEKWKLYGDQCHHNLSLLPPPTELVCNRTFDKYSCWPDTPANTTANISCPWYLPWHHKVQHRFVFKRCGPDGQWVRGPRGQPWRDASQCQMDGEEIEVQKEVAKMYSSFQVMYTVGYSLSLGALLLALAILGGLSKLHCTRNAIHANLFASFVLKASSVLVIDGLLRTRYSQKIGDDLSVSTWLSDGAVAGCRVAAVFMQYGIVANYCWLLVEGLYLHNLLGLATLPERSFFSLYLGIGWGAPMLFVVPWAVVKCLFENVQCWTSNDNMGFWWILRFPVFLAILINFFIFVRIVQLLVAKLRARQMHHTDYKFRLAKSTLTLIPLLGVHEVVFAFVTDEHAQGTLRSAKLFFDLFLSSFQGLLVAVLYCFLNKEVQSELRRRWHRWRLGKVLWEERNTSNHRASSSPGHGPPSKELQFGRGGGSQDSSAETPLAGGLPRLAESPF
# [2] = target: T2, human glucose-dependent insulinotropic peptide receptor (GIPR) (Homo sapiens, UniProt P48546); experiment: as above; type: cell-based; conditions: HEK293 cells expressing human GIPR, geometric mean, read-out: hGIPR cAMP Rel EC50 nM (SEM, n)
# T2 construct: expressed in transfected cells; host or cells: HEK293
# T2 sequence (P48546 22-466): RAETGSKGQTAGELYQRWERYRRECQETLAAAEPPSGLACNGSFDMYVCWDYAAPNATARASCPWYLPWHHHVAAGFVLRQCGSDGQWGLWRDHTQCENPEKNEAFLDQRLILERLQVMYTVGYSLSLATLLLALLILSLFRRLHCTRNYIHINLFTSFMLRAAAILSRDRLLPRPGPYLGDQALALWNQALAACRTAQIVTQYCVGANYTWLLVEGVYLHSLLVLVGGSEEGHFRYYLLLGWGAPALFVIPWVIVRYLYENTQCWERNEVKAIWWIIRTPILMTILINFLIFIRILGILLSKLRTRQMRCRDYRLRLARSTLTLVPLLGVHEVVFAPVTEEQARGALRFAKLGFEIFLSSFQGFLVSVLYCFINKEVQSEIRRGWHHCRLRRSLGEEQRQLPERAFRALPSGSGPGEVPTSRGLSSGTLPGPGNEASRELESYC
Compound,EC50 [1] [nM],EC50 [2] [nM]
CC[C@H](C)[C@H](NC(=O)[C@H](CO)NC(=O)[C@H](Cc1ccc(O)cc1)NC(=O)[C@H](CC(=O)O)NC(=O)[C@H](CO)NC(=O)[C@@H](NC(=O)[C@H](Cc1ccccc1)NC(=O)[C@@H](NC(=O)CNC(=O)[C@H](CCC(=O)O)NC(=O)[C@@H](C)NC(=O)[C@@H](N)Cc1ccc(O)cc1)[C@@H](C)O)[C@@H](C)CC)C(=O)N[C@@H](CC(C)C)C(=O)N[C@@H](CC(C)C)C(=O)N[C@@H](CC(=O)O)C(=O)N[C@@H](CCCCN)C(=O)N[C@@H](CCCCNC(=O)COCCOCCNC(=O)COCCOCCNC(=O)CC[C@H](NC(=O)CCCCCCCCCCCCCCCCCCC(=O)O)C(=O)O)C(=O)N[C@@H](C)C(=O)N[C@@H](CCC(N)=O)C(=O)N[C@@H](CCC(N)=O)C(=O)N[C@@H](CC(=O)O)C(=O)N[C@@H](Cc1ccccc1)C(=O)N[C@H](C(=O)N[C@@H](CC(N)=O)C(=O)N[C@@H](Cc1c[nH]c2ccccc12)C(=O)N[C@@H](CC(C)C)C(=O)N[C@@H](CC(C)C)C(=O)N[C@@H](C)C(=O)N[C@@H](CCC(N)=O)C(=O)NCC(=O)N1CCC[C@H]1C(=O)N[C@@H](CO)C(=O)N[C@@H](CO)C(=O)NCC(=O)N[C@@H](C)C(=O)N1CCC[C@H]1C(=O)N1CCC[C@H]1C(=O)N1CCC[C@H]1C(=O)N[C@@H](CO)C(N)=O)C(C)C [Example 11] (H-Y[dA]EGTFISDYSILLDKK([AEEA-AEEA-γGlu-C20 diacid])AQQDFVNWLLAQGPSSGAPPPS-NH2),445,0.0738
CC[C@H](C)[C@H](NC(=O)[C@H](CO)NC(=O)[C@H](Cc1ccc(O)cc1)NC(=O)[C@H](CC(=O)O)NC(=O)[C@H](CO)NC(=O)[C@@H](NC(=O)[C@H](Cc1ccccc1)NC(=O)[C@@H](NC(=O)CNC(=O)[C@H](CCC(=O)O)NC(=O)[C@@H](C)NC(=O)[C@@H](N)Cc1ccc(O)cc1)[C@@H](C)O)[C@@H](C)CC)C(=O)N[C@@H](CC(C)C)C(=O)N[C@@H](CC(C)C)C(=O)N[C@@H](CC(=O)O)C(=O)N[C@@H](CCCCN)C(=O)N[C@@H](CCCCNC(=O)COCCOCCNC(=O)COCCOCCNC(=O)CC[C@H](NC(=O)CCCCCCCCCCCCCCCCCCC(=O)O)C(=O)O)C(=O)N[C@@H](C)C(=O)N[C@@H](CCC(N)=O)C(=O)N[C@@H](CCC(N)=O)C(=O)N[C@@H](CC(=O)O)C(=O)N[C@@H](Cc1ccccc1)C(=O)N[C@H](C(=O)N[C@@H](CC(N)=O)C(=O)N[C@@H](Cc1c[nH]c2ccccc12)C(=O)N[C@@H](CC(C)C)C(=O)N[C@@H](CC(C)C)C(=O)N[C@@H](C)C(=O)NCC(=O)NCC(=O)N1CCC[C@H]1C(=O)N[C@@H](CO)C(=O)N[C@@H](CO)C(=O)NCC(=O)N[C@@H](C)C(=O)N1CCC[C@H]1C(=O)N1CCC[C@H]1C(=O)N1CCC[C@H]1C(=O)N[C@@H](CO)C(N)=O)C(C)C [Example 12] (H-Y[dA]EGTFISDYSILLDKK([AEEA-AEEA-γGlu-C20 diacid])AQQDFVNWLLAGGPSSGAPPPS-NH2),> 5000,0.0911
